# Literature values in patent US20150051382A1 (CARDIOPEP PHARMA GMBH, priority 2010, published 2015).
# Columns and labels:
# [1] = system: patients with moderate asthma affliction; conditions: brief infusion; healthy and diseased subjects
# [2] = system: patients with chronic congestive heart failure
# [3] = system: patients with chronic congestive heart failure; conditions: 15 ng/kg/min, 10-hour infusion
substance,measurement,setting,value
urodilatin,effect on bronchoconstriction,[1],temporary biological effect
same,"effect as compared to other natriuretic peptides, such as ANP",dogs,better effect
same,changes of the baseline in pulmonary capillary wedge pressure (PCWP),"[2]; 15+30 ng/kg/min, compared with the placebo group",significant reductions
same,changes of the cardiac index (CI),[2]; 15 and 30 ng/kg/min,significant increase
same,"cardiac index (CI), reversal of effect",[2]; after 6 to 8 hours of infusion,partial drop of CI
same,"pulmonary capillary wedge pressure (PCWP), reversal of effect",[2]; after 6 to 8 hours of infusion,slight increase of PCWP
same,"symptoms, morbidity and mortality",[2]; all doses,significantly improved
same,acute survival rate and hospital dwelling time,"[2]; human, in vivo",significantly and relevantly influenced
same,central venous pressure (CVP),[3]; after 5 hours of infusion,increases slightly
same,urine flow,[3]; after 8 hours of infusion,loss of action
